ChEMBL document CHEMBL1142394, “Morphinane alkaloid dimers from Sinomenium acutum” (J Nat Prod, 2008)

Assays:
[1] = system: A549; test: Cytotoxicity against human A549 cells by MTT assay; format: functional, cell-based
[2] = system: HeLa; test: Cytotoxicity against human HeLa cells by MTT assay; format: functional, cell-based

SMILES | IC50 [1] [µM] | IC50 [2] [µM]
COC1=C[C@@H]2[C@@H]3Cc4cc(-c5cc6c(c(O)c5OC)[C@@]57CCN(C)[C@@H](C6)[C@H]5C=C(OC)C(=O)C7)c(OC)c(O)c4[C@]2(CCN3C)CC1=O | 65.5 | 71.7
COC1=C[C@@H]2[C@@H]3Cc4c(-c5cc(OC)c(O)c6c5C[C@H]5[C@H]7C=C(OC)C(=O)C[C@@]67CCN5C)cc(OC)c(O)c4[C@]2(CCN3C)CC1=O | 71.8 | 70.7
